# Reference: patent US11833160B2, “Ursodeoxycholic acid derivatives as HDAC inhibitors for the treatment of polycystic diseases” (UNIVERSIDAD DEL PAIS VASCO/EUSKAL HERRIKO UNIBERTSITATEA, priority 2017, dated 2023)
# How the values were obtained:
# [1] = target: T1, human HDAC4 (Homo sapiens, UniProt P56524); experiment: HDAC4 enzymatic activity assay (fluorogenic peptide); format: biochemical; details: 10-dose, 3-fold serial dilution, triplicate
# T1 construct: amino acids 627-1085 with GST N-terminal tag, MW=75.2 kDa; GST (N); purchased BioMol, Hamburg, Germany; host or cells: baculovirus expression system
# Description: (§1) Peptide substrates: all HDAC assays were performed using acetylated peptide substrates labeled with 7-amino-4-methylcoumarin (AMC): • Substrate for isoforms HDAC1, 2, 3, 6, 10, 11, and HeLa nuclear extract assays: acetylated fluorogenic peptide from p53 residues 379-382 (RHKKAc). • Substrate for isoforms HDAC4, 5, 7, 9: fluorogenic Boc-L-Lys (s-trifluoroacetyl)-AMC. • Substrate for HDAC8 assays: acetylated fluorogenic peptide from p53 residues 379-382 (RHKAcKAc).
# (§2) 50 μl of peptide substrate (see “peptide substrates” section above) and an optimal concentration of the corresponding enzyme (see “enzymes” section above) in the assay buffer at a final DMSO concentration of 1% were incubated in the presence of gradient concentrations of inhibitors (10-dose IC50 mode with 3-fold serial dilution) at 30° C. for 2 hours. The reactions were carried out in a 96-well microplate for fluorometry in a 50 μl reaction volume. After the deacetylation reaction, Fluor-de-Lys-Developer (BioMol Cat. #KI-105) was added to each well to digest the deacetylated substrate, thereby producing the fluorescent signal. The reaction was carried out for 45 minutes at 30° C. with 5% CO2; the fluorescent signal was then measured using an excitation wavelength of 360 nm and an emission wavelength of 460 nm in a microplate-reading fluorometer (GeminiXS, Molecular Devices, Sunnyvale, CA). […]
# [2] = target: T2, human HDAC5 (Homo sapiens, UniProt Q9UQL6); experiment: HDAC5 enzymatic activity assay (fluorogenic peptide); format: biochemical; details: 10-dose, 3-fold serial dilution, triplicate
# T2 construct: GST (N); purchased BioMol, Hamburg, Germany; host or cells: baculovirus / Sf9 cells
# Description: as §1, §2
# [3] = target: T3, ASBT (Homo sapiens, UniProt Q12908); experiment: Uptake study, transporter ASBT (data not shown); format: in vitro ADME
# T3 construct: expressed in transfected cells
# T3 sequence (Q12908 1-348): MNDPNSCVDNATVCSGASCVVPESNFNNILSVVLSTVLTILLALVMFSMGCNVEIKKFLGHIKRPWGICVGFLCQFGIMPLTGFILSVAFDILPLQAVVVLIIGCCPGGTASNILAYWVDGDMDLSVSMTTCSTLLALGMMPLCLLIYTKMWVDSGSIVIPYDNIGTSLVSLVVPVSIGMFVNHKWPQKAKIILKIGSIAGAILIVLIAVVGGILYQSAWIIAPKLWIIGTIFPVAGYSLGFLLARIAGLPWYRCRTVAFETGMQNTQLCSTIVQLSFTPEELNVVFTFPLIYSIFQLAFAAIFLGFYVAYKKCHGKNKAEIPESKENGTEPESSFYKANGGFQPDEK
# Description: The bile acid and organic cation transporters expressed in hepatocytes and cholangiocytes were overexpressed in HepG2 cells (OCT1) and CHO cells (OCT3). The efficacy of the process was confirmed by means of measuring the abundance of mRNA (qPCR), protein (WB), and the correct insertion in the plasma membrane (immunofluorescence). The uptake studies included comparing the uptake efficiency of the compound with respect to dihydroethidium (DHE) in the case of OCT3, and sorafenib in the case of OCT1 (positive controls), as well as the sensitivity of the process to substrate inhibition induced by the joint administration of the compound and quinine. The cell content of all the compounds was determined by means of triple quadrupole HPLC-MS/MS after extraction thereof from the cell system used in each case.
# [4] = test system: polycystic human cholangiocytes; experiment: CFSE proliferation protocol by flow cytometry; format: cell-based
# Description: The proliferation of polycystic human cholangiocytes at 48 hours in the absence or presence of different doses of compound Ia (10, 50, 100, μM) in a quiescence culture medium was analyzed. To that end, the CFSE proliferation protocol (Invitrogen) was used using flow cytometry.
# [5] = test system: polycystic human cholangiocytes; experiment: Primary cilium length (cilium staining, confocal microscopy), polycystic cells; format: cell-based; details: after treatment
# Description: (§3) Cilium staining. Cells cultured on cover slips were washed with PBS, fixed with methanol, and blocked for one hour in a blocking buffer at room temperature. The γ-tubulin primary antibodies (1:100; Sigma-Aldrich, St Louis, MO) and acetylated α-tubulin primary antibodies (1:1000; Sigma-Aldrich) or IFT88 primary antibodies (1:100; ProteinTech, Rosemont, IL, USA) were incubated overnight at 4° C. After washing, Alexa Fluor 594 and 488 secondary antibodies were combined with the primary antibodies (Life Technologies, Carlsbad, CA, USA) and incubated for 2 hours at room temperature. The cover slips were placed on slides with Prolong Gold Antifade with Dapi (Invitrogen, Carlsbad, CA, USA). The slides were observed and images were taken using laser scanning confocal microscopy with a 60× objective (NIKON C1si Confocal Spectral Imaging System, NIKON Instruments Co., Melville, NY, USA). The field was magnified 4× to observe individual cilia. The images were opened with EZ-C1 3.90 Freeviewer and a scale bar was added. The images were converted to Tiff files and quantified using ImageJ Software. The scale bar saved in the image was measured and the scale established. Using the freehand tool, the cilia were traced and measurements taken.
# [6] = test system: normal human cholangiocytes (NHC3); experiment: Primary cilium length (cilium staining, confocal microscopy), normal cells; format: cell-based; details: after treatment
# Description: as §3
# T1 sequence (P56524 627-1084 limits assumed): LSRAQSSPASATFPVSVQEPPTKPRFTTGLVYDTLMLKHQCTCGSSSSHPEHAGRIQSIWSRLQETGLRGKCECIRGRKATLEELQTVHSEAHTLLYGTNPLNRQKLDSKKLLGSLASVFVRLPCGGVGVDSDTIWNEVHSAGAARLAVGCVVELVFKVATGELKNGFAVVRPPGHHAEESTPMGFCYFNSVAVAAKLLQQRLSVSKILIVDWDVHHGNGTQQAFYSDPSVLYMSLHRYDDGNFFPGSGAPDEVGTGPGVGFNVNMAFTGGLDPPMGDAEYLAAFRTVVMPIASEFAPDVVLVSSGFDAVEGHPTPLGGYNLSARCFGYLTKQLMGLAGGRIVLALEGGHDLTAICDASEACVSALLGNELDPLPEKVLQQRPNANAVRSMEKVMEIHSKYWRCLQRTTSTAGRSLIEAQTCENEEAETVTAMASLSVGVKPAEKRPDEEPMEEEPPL
# T2 sequence (Q9UQL6 1-1123 isoform Q9UQL6-3): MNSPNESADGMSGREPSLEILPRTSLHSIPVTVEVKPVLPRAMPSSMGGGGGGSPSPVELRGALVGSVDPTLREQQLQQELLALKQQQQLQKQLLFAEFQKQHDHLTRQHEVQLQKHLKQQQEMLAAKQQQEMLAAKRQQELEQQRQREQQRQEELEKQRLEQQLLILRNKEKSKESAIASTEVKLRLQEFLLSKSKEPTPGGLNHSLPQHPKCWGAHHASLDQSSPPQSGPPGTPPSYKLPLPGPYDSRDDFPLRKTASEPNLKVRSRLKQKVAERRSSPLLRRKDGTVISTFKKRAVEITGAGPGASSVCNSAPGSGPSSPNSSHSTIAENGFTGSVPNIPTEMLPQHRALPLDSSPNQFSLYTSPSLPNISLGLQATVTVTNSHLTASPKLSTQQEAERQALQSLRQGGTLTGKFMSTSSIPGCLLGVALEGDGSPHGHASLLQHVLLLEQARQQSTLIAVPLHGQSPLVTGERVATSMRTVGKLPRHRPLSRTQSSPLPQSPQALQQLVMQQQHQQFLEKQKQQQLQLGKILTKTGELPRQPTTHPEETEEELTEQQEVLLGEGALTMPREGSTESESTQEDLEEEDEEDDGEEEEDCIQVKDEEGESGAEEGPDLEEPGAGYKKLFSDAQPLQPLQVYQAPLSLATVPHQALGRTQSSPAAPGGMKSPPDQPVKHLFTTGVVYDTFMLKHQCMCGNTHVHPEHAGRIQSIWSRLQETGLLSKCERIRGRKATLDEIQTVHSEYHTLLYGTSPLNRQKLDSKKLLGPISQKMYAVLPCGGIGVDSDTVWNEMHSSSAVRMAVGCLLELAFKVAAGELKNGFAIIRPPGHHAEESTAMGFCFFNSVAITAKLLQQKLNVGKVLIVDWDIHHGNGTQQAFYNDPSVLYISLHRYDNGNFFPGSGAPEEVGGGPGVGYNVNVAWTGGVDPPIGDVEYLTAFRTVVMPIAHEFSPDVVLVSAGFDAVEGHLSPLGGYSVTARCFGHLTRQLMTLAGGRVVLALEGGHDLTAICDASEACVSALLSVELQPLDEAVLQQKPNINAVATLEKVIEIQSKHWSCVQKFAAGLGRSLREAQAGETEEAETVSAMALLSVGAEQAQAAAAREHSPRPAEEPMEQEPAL
compound,measurement,setting,value
C[C@H](CCC(=O)NCc1ccc(C(=O)NO)cc1)[C@H]1CC[C@H]2[C@@H]3[C@@H](O)C[C@@H]4C[C@H](O)CC[C@]4(C)[C@H]3CC[C@]12C [Compound Ia],IC50,[1],16.5 µM
same,IC50,[2],14.1 µM
same,transport through ASBT,[3],not through ASBT
same,proliferation of polycystic human cholangiocytes,"[4]; 48 hours, 10, 50, 100 μM, quiescence culture medium",inhibits the hyper-proliferation of polycystic human cholangiocytes in vitro in a dose-dependent manner
same,inhibition of proliferation compared with UDCA,"[4]; 48 hours, UDCA at 100 μM",with a higher intensity than UDCA
same,"length of the cilia, polycystic human cholangiocytes",[5],significantly increased
same,"length of the cilia, normal human cholangiocytes",[6],did not lead to any significant variations
